According to patent US9315503B2, “Kinase inhibitors” (CHIESI FARMACEUTICI S.p.A., priority 2011, dated 2016):
Structures can show the parent of a compound that is named as a salt.

Tests used:
[1] = system: BAL cell influx induced by TS; assay: Pre-clinical mouse model of COPD: tobacco smoke induced pulmonary inflammation; assay type: in vivo; conditions: mice, 3, 30 or 100 μg/kg, intranasal route, 4 daily TS exposures, BAL 24 h after final exposure (FIG. 1)
Source text: Pre-Clinical Mouse Model of COPD Tobacco Smoke Induced Pulmonary Inflammation.
This timepoint was used in the studies reported here.
Protocols for the exposure of mice to TS, obtaining bronchoalveolar lavage fluid (BALF) and preparation of cytospin slides for differential cell counts are as outlined below.
Daily Exposure of Mice to TS for 4 Consecutive Days.
In this exposure protocol, mice were exposed in groups of 5 in individual clear polycarbonate chambers (27 cm×16 cm×12 cm). The TS from the cigarettes was allowed to enter the exposure chambers at a flow rate of 100 ml/min. In order to minimise any potential problems caused by repeated exposure to a high level of TS, the exposure of the mice to TS was increased gradually over the exposure period to a maximum of 6 cigarettes. […]
Lavage fluid was separated from cells by centrifugation and the supernatant decanted and frozen for subsequent analyses. The cell pellet was re-suspended in a known volume of PBS and total cell numbers calculated by counting a stained (Turks stain) aliquot under a microscope using a haemocytometer. […]
The residual cell pellet was diluted to approximately 10^5 cells per ml. […] Approximately four hundred cells were counted by an unbiased operator using light microscopy. […]
All results are presented as individual data points for each animal and the mean value was calculated for each group. […]

[2] = system: LPS-stimulated TNFα release from PBMCs; assay: LPS-stimulated PBMC TNFα release assay; assay type: cell-based; conditions: inhibition of TNFα release, human PBMCs, LPS 10 ng/ml, 18 h, ELISA, read-out: p38α inhibition (IC50 values)
Outline: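 Healthy-donor human PBMCs, density-gradient isolated, preincubated 1 h at 37 °C with compound in 1% FBS RPMI 1640, then stimulated with LPS (10 ng/ml) for 18 h. Supernatant TNFα by ELISA; IC50 from dose-response of % inhibition of control release, n≥3 experiments.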

p38alpha = target: T1, p38alpha (Homo sapiens, UniProt Q16539); assay: P38Alpha enzyme inhibition assay (Alphascreen kinase activity assay); assay type: biochemical; conditions: 100 pM p38alpha, 250 μM ATP, 2 hours pre-incubation at 25° C., read-out: p38α inhibition (IC50 values)
T1 construct: purchased Invitrogen PV3304
Outline: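 p38α (100 pM) with ATF-2 fusion protein substrate (0.3 µg/ml) in pH 7.5 HEPES/MgCl2 buffer, 1% DMSO, preincubated 2 h at 25°C with compound. Reaction started with 250 µM ATP, ran 1 h at 25°C, then stopped with EDTA. Phospho-ATF2 antibody detected by AlphaScreen luminescence; IC50 from concentration-response curves.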

T1 sequence (Q16539 whole entry): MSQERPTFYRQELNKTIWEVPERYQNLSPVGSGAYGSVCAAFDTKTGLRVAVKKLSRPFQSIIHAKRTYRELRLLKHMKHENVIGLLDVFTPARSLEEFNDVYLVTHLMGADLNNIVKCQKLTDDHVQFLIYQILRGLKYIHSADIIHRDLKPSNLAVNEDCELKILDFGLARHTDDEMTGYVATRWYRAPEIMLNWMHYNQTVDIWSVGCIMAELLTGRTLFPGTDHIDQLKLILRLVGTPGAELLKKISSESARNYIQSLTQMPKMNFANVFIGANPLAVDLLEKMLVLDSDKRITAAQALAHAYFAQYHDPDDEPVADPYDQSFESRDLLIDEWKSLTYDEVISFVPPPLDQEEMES

| SMILES | BAL cell influx induced by TS [1] | IC50 [2] [µM] | IC50 (p38alpha) [µM] |
| --- | --- | --- | --- |
| Cc1ccc(-n2nc(C(C)(C)C)cc2NC(=O)N[C@H]2CC[C@@H](Oc3ccc4nnc([C@@H]5CCCN5C)n4c3)c3ccccc32)cc1 [Example 5, 1-(5-tert-Butyl-2-p-tolyl-2H-pyrazol-3-yl)-3-[(1S,4R)-4-[3-((S)-1-methyl-pyrrolidin-2-yl)-[1,2,4]triazolo[4,3-a]pyridin-6-yloxy)-1,2,3,4-tetrahydro-naphthalen-1-yl]-urea] | significantly inhibited | < 0.01 | < 0.01 |
| C[C@@H]1CCC[C@H](C)N1c1nnc2ccc(O[C@@H]3CC[C@H](NC(=O)Nc4cc(C(C)(C)C)nn4-c4cnn(CCN5CCOCC5)c4)c4ccccc43)cn12 [Example 124, 1-[3-tert-Butyl-1′-(2-morpholin-4-yl-ethyl)-1′H-[1,4′]bipyrazolyl-5-yl]-3-((1S,4R)-4-[3-((2S,6R)-2,6-dimethyl-piperidin-1-yl)-[1,2,4]triazolo[4,3-a]pyridin-6-yloxy]-1,2,3,4-tetrahydro-naphthalen-1-yl)-urea formate salt] |  | < 0.01 | < 0.01 |
| C[C@@H]1CCC[C@H](C)N1c1nnc2ccc(O[C@@H]3CC[C@H](NC(=O)Nc4cc(C(C)(C)C)nn4-c4cnn(CCN(C)C)c4)c4ccccc43)cn12 [Example 125, 1-[3-tert-Butyl-1′-(2-dimethylamino-ethyl)-1′H-[1,4′]bipyrazolyl-5-yl]-3-{(1S,4R)-4-[3-((2S,6R)-2,6-dimethyl-piperidin-1-yl)-[1,2,4]triazolo[4,3-a]pyridin-6-yloxy]-1,2,3,4-tetrahydro-naphthalen-1-yl}-urea] |  | < 0.01 | < 0.01 |
| C[C@H]1CCCCN1c1nnc2ccc(O[C@@H]3CC[C@H](NC(=O)Nc4cc(C(C)(C)C)nn4C)c4ccccc43)cn12 [Example 126, 1-(5-tert-Butyl-2-methyl-2H-pyrazol-3-yl)-3-{(1S,4R)-4-[3-((S)-2-methyl-piperidin-1-yl)-[1,2,4]triazolo[4,3-a]pyridin-6-yloxy]-1,2,3,4-tetrahydronaphthalen-1-yl]-urea] |  | < 0.01 | < 0.01 |
| C[C@H]1CCCCN1c1nnc2ccc(O[C@@H]3CC[C@H](NC(=O)Nc4cc(C(C)(C)C)nn4CCN(C)C)c4ccccc43)cn12 [Example 127, 1-[5-tert-Butyl-2-(2-dimethylamino-ethyl)-2H-pyrazol-3-yl]-3-{(1S,4R)-4-[3-((S)-2-methyl-piperidin-1-yl)-[1,2,4]triazolo[4,3-a]pyridin-6-yloxy]-1,2,3,4-tetrahydro-naphthalen-1-yl}-urea formate salt] |  | < 0.01 | < 0.01 |
| C[C@H]1CCCCN1c1nnc2ccc(O[C@@H]3CC[C@H](NC(=O)Nc4cc(C(C)(C)C)nn4CCN4CCCCC4)c4ccccc43)cn12 [Example 128, 1-[5-tert-Butyl-2-(2-piperidin-1-yl-ethyl)-2H-pyrazol-3-yl]-3-{(1S,4R)-4-[3-((S)-2-methyl-piperidin-1-yl)-[1,2,4]triazolo[4,3-a]pyridin-6-yloxy]-1,2,3,4-tetrahydro-naphthalen-1-yl}-urea formate salt] |  | < 0.01 | < 0.01 |
| C[C@H]1CCCCN1c1nnc2ccc(O[C@@H]3CC[C@H](NC(=O)Nc4cc(C(C)(C)C)nn4CCN4CCN(C)CC4)c4ccccc43)cn12 [Example 129, 1-{5-tert-Butyl-2-[2-(4-methyl-piperazin-1-yl)-ethyl]-2H-pyrazol-3-yl}-3-{(1S,4R)-4-[3-((S)-2-methyl-piperidin-1-yl)-[1,2,4]triazolo[4,3-a]pyridin-6-yloxy]-1,2,3,4-tetrahydro-naphthalen-1-yl}-urea formate salt] |  | 0.01 to 0.1 | < 0.01 |
| C[C@@H]1CCC[C@H](C)N1c1nnc2ccc(O[C@@H]3CC[C@H](NC(=O)Nc4cc(C(C)(C)C)nn4-c4cccc(CN5CCOCC5)c4)c4ccccc43)cn12 [Example 130, 1-[5-tert-Butyl-2-(3-morpholin-4-ylmethyl-phenyl)-2H-pyrazol-3-yl]-3-{(1S,4R)-4-[3-((2S,6R)-2,6-dimethyl-piperidin-1-yl)-[1,2,4]triazolo[4,3-a]pyridin-6-yloxy]-1,2,3,4-tetrahydro-naphthalen-1-yl}-urea formate salt] |  | < 0.01 | < 0.01 |
